# According to patent publication US20160102103A1, “SUBSTITUTED PYRIDINE COMPOUNDS HAVING HERBICIDAL ACTIVITY” (BASF SE, priority 2013, published 2016):
# Key:
# Type in all cases: in vivo
# Echinocloa crus-galli = assay: greenhouse post-emergence herbicidal test, ECHCG; details: scale from 0 to 100
# Description: (§1) The seeds of the test plants were sown separately for each species. For the post-emergence treatment, the test plants were first grown to a height of 3 to 15 cm, depending on the plant habit, and only then treated with the active ingredients which had been suspended or emulsified in water. For this purpose, the test plants were either sown directly and grown in the same containers, or they were first grown separately as seedlings and transplanted into the test containers a few days prior to treatment. Depending on the species, the plants were kept at 10-25° C. or 20-35° C., respectively. The test period extended over 2 to 4 weeks. During this time, the plants were tended, and their response to the individual treatments was evaluated. Evaluation was carried out using a scale from 0 to 100. 100 means no emergence of the plants, or complete destruction of at least the aerial moieties, and 0 means no damage, or normal course of growth. A good herbicidal activity is given at values of at least 70 and a very good herbicidal activity is given at values of at least 85. The plants used in the greenhouse experiments were of the following species: [table]
# Abutilon theophrasti = assay: greenhouse post-emergence herbicidal test, ABUTH; details: scale from 0 to 100
# Description: as §1
# Capsella bursa-pastoris = assay: greenhouse post-emergence herbicidal test, CAPBP; details: application rate 0.25 kg/ha, scale from 0 to 100
# Description: as §1
# Setaria viridis = assay: greenhouse post-emergence herbicidal test, SETVI; details: scale from 0 to 100
# Description: as §1
# Amaranthus retroflexus = assay: greenhouse post-emergence herbicidal test, AMARE; details: application rate 0.271 kg/ha, scale from 0 to 100
# Description: as §1
# Setaria faberi = assay: greenhouse post-emergence herbicidal test, SETFA; details: application rate 0.125 kg/ha, scale from 0 to 100
# Description: as §1
# Polygonum convolvulus = assay: greenhouse post-emergence herbicidal test, POLCO; details: application rate 0.125 kg/ha, scale from 0 to 100
# Description: as §1
# Thlaspi arvense = assay: greenhouse post-emergence herbicidal test, THLAR; details: application rate 0.25 kg/ha, scale from 0 to 100
# Description: as §1
smiles,measurement,setting,value
O=S1(=O)Cc2cccnc2C(O)=C1c1c(F)cnc(Cl)c1Br [Compound I-27],herbicidal activity against ECHCG,Echinocloa crus-galli; application rate 0.25 kg/ha,very good herbicidal activity (a very good herbicidal activity is given at values of at least 85)
COc1c(Cl)ncc(Cl)c1C1=C(O)c2ncccc2C(C)(C)S1(=O)=O [Compound I-16],herbicidal activity against ABUTH,Abutilon theophrasti; application rate 0.125 kg/ha,very good herbicidal activity (a very good herbicidal activity is given at values of at least 85)
Cc1c(Cl)ncc(F)c1C1=C(O)c2ncccc2CS1(=O)=O [Compound I-36],herbicidal activity against ECHCG,Echinocloa crus-galli; application rate 1.0 kg/ha,good herbicidal activity (A good herbicidal activity is given at values of at least 70)
CC1c2cccnc2C(OC(=O)C(C)(C)C)=C(c2c(Cl)cnc(Cl)c2Cl)S1(=O)=O (stereo not shown) [Compound I-7],herbicidal activity against CAPBP,Capsella bursa-pastoris,very good herbicidal activity (a very good herbicidal activity is given at values of at least 85)
COc1c(Cl)ncc(Cl)c1C1=C(OC(=O)C(C)(C)C)c2ncccc2CS1(=O)=O [Compound I-13],herbicidal activity against SETVI,Setaria viridis; application rate 0.25 kg/ha,good herbicidal activity (A good herbicidal activity is given at values of at least 70)
CC(C)(C)C(=O)OC1=C(c2c(Cl)cnc(Cl)c2Cl)S(=O)(=O)C2(CC2)c2cccnc21 [Compound I-11],herbicidal activity against ABUTH,Abutilon theophrasti; application rate 0.50 kg/ha,very good herbicidal activity (a very good herbicidal activity is given at values of at least 85)
same,herbicidal activity against SETVI,Setaria viridis; application rate 0.50 kg/ha,very good herbicidal activity (a very good herbicidal activity is given at values of at least 85)
same,herbicidal activity against ECHCG,Echinocloa crus-galli; application rate 0.50 kg/ha,very good herbicidal activity (a very good herbicidal activity is given at values of at least 85)
O=S1(=O)Cc2cccnc2C(O)=C1c1c(Br)cnc(Cl)c1F [Compound I-40],herbicidal activity against ECHCG,Echinocloa crus-galli; application rate 0.125 kg/ha,good herbicidal activity (A good herbicidal activity is given at values of at least 70)
COc1c(Cl)ncc(Cl)c1C1=C(OC(=O)C(C)(C)C)c2ncccc2C2(CC2)S1(=O)=O [Compound I-19],herbicidal activity against ABUTH,Abutilon theophrasti; application rate 0.271 kg/ha,very good herbicidal activity (a very good herbicidal activity is given at values of at least 85)
same,herbicidal activity against AMARE,Amaranthus retroflexus,very good herbicidal activity (a very good herbicidal activity is given at values of at least 85)
same,herbicidal activity against SETVI,Setaria viridis; application rate 0.271 kg/ha,very good herbicidal activity (a very good herbicidal activity is given at values of at least 85)
CC1(C)c2cccnc2C(O)=C(c2c(F)cnc(Cl)c2Br)S1(=O)=O [Compound I-28],herbicidal activity against SETFA,Setaria faberi,very good herbicidal activity (a very good herbicidal activity is given at values of at least 85)
CC1(C)c2cccnc2C(O)=C(c2c(Cl)cnc(Cl)c2F)S1(=O)=O [Compound I-39],herbicidal activity against POLCO,Polygonum convolvulus,good herbicidal activity (A good herbicidal activity is given at values of at least 70)
O=S1(=O)C(c2c(Cl)cnc(Cl)c2Cl)=C(O)c2ncccc2C12CC2 [Compound I-12],herbicidal activity against THLAR,Thlaspi arvense,very good herbicidal activity (a very good herbicidal activity is given at values of at least 85)
O=S1(=O)Cc2cccnc2C(O)=C1c1c(Cl)cncc1Cl [Compound I-1],herbicidal activity against ABUTH,Abutilon theophrasti; application rate 0.25 kg/ha,very good herbicidal activity (a very good herbicidal activity is given at values of at least 85)
